13 compounds from US20200078468A1, “NEUROTENSIN RECEPTOR BINDING CONJUGATES AND FORMULATIONS THEREOF” (priority 2016, published 2020) can be followed below.

One experiment addresses T1, human NTSR1 (Homo sapiens, UniProt P30989).
T1 construct: host or cells: HEK-293 cells (membrane preparations)
The experiment can be described thus: radioligand-receptor binding assay, [125I] labeled neurotensin (Eurofins Panlabs). The method, then: Conjugates were assessed in an in vitro assay evaluating binding to NTSR1. A radioligand-receptor binding assay was conducted at Eurofins Panlabs (Taiwan) to determine the affinity of conjugates described herein to NTSR1. The assay measures binding of radiolabeled ligand, [^125I] labeled neurotensin, to human NTSR1 using membrane preparations from NTSR1 expressing HEK-293 cells (Human embryonic kidney cells 293). Membranes were incubated with radiolabeled neurotensin (0.02 nM) in the presence of conjugate/compound starting at a dose of either 100 nM, or 10 nM, using 3× serial dilutions to obtain a 6-pt curve. After a 45 minute incubation, membranes were filtered and washed 3× and counted to determine the remaining [^125I] neurotensin bound to the receptor. IC50 values were determined by a non-linear, least squares regression analysis using MathIQ™ (ID Business Solutions Ltd., UK). The Ki values were calculated using the equation of Cheng and Prusoff (Cheng and Prusoff, Biochem. Pharmacol. 22:3099-3108, 1973) using the observed IC50 of the tested conjugate/compound, the concentration of radioligand employed in the assay, and the historical values for the Kd of the ligand obtained at Eurofins.

In experiment [1] the test system is SW48 (human colon cancer cells). The experiment can be described thus: inhibition of SW48 cell proliferation (CellTiter Glo). Format: cell-based. The settings on record: 72 hrs, read-out: SW-48 proliferation IC50. The method in brief:
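Cells plated at 5,000/well and grown 24 hrs were exposed to conjugates for 72 hrs at 37° C, 5% CO2, in a ten-point three-fold series starting at 10 μM; vehicle was 0.01% DMSO. Proliferation was read by CellTiter Glo. % inhibition was taken relative to vehicle, with IC50 from four-parameter nonlinear regression.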

[2] abbreviates: [125I] neurotensin 0.02 nM, membranes from NTSR1 expressing HEK-293 cells, 45 minute incubation, Cheng and Prusoff, read-out: NTSR1 binding Ki.

Each structure is given as a SMILES string. Like-named read-outs stand apart in the source and are kept apart here. Square brackets hold non-standard residues; d marks the D form. Peptide text beside a SMILES is read from it. * marks the point of attachment. X2 = COc1cc2cc(c1Cl)N(C)C(=O)C[C@H](OC(=O)[C@H](C)N(C)C(=O)CCS*)[C@]1(C)O[C@H]1[C@H](C)[C@@H]1C[C@@](O)(NC(=O)O1)[C@H](OC)/C=C/C=C(\C)C2; X4 = CCc1c2c(nc3ccc(O)cc13)-c1cc3c(c(=O)n1C2)COC(=O)[C@@]3(CC)OC(=O)OCCS*; Pen = CC(C)(S)[C@H](N)C(=O)O; Tle = CC(C)(C)[C@H](N)C(=O)O

T1 sequence (P30989 whole entry): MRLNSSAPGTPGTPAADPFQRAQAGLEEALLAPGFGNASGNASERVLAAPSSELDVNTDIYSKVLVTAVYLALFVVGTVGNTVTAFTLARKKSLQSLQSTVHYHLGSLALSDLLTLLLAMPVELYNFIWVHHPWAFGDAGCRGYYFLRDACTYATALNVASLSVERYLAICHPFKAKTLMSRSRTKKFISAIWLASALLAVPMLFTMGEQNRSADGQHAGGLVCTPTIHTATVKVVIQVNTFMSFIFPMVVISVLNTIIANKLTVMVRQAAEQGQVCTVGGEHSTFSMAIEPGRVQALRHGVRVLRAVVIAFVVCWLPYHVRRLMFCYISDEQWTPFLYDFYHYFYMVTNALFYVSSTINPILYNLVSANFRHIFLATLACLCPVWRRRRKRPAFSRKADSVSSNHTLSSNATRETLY

On to `COc1cc2cc(c1Cl)N(C)C(=O)C[C@H](OC(=O)[C@H](C)N(C)C(=O)CCSSC(C)(C)[C@H](NC(C)=O)C(=O)N1CCC[C@H]1C(=O)N[C@@H](CCCNC(=N)N)C(=O)N[C@@H](CCCNC(=N)N)C(=O)N1CCC[C@H]1C(=O)N[C@@H](Cc1ccc(O)cc1)C(=O)N[C@H](C(=O)N[C@@H](CC(C)C)C(=O)O)C(C)(C)C)[C@]1(C)O[C@H]1[C@H](C)[C@@H]1C[C@@](O)(NC(=O)O1)[C@H](OC)/C=C/C=C(\C)C2` [Compound 12] (Ac-[Pen](X2)PRRPY[Tle]L-OH), for which, on human NTSR1 (setting [2]), the Ki was found to be 1.03 nM. Further, the IC50 in experiment [1] (NTSR1 targeted compound) was 15 nM.
Consider `COc1cc2cc(c1Cl)N(C)C(=O)C[C@H](OC(=O)[C@H](C)N(C)C(=O)CCSC1CC(=O)N(CCCNC(=O)CNC(=O)[C@H](CC(C)C)NC(=O)[C@H](Cc3ccccc3)NC(=O)CNC(=O)CCCCCN3C(=O)CC(SC(C)(C)[C@H](NC(C)=O)C(=O)N4CCC[C@H]4C(=O)N[C@@H](CCCCN)C(=O)N[C@@H](CCCNC(=N)N)C(=O)N4CCC[C@H]4C(=O)N[C@@H](Cc4ccc(O)cc4)C(=O)N[C@H](C(=O)N[C@@H](CC(C)C)C(=O)O)C(C)(C)C)C3=O)C1=O)[C@]1(C)O[C@H]1[C@H](C)[C@@H]1C[C@@](O)(NC(=O)O1)[C@H](OC)/C=C/C=C(\C)C2` (some centres unmarked) [Compound 21], for which the Ki at human NTSR1 (setting [2]) was determined as 4.65 nM. Besides, the IC50 in experiment [1] (NTSR1 targeted compound) came out at 0.49 nM.
Consider `COc1cc2cc(c1Cl)N(C)C(=O)C[C@H](OC(=O)[C@H](C)N(C)C(=O)CCSSC(C)(C)[C@H](NC(C)=O)C(=O)N1CCC[C@H]1C(=O)N[C@@H](CC(C)C)C(=O)N1CCC[C@H]1C(=O)N[C@@H](CCCNC(=N)N)C(=O)N[C@H](C(=O)N[C@@H](CCCNC(=N)N)C(=O)N[C@@H](Cc1ccc(O)cc1)C(=O)O)C(C)(C)C)[C@]1(C)O[C@H]1[C@H](C)[C@@H]1C[C@@](O)(NC(=O)O1)[C@H](OC)/C=C/C=C(\C)C2` [Compound 77], for which the inhibition constant (Ki) at human NTSR1 (setting [2]) was over 100 nM. Further, the IC50 in experiment [1] (NTSR1 scrambled compound) amounted to 16.5 nM.
With `COc1cc2cc(c1Cl)N(C)C(=O)C[C@H](OC(=O)[C@H](C)N(C)C(=O)CCSC1CC(=O)N(CCCNC(=O)CNC(=O)[C@H](CC(C)C)NC(=O)[C@H](Cc3ccccc3)NC(=O)CNC(=O)CCCCCN3C(=O)CC(SC(C)(C)[C@H](NC(C)=O)C(=O)N4CCC[C@H]4C(=O)N[C@@H](CCCNC(=N)N)C(=O)N[C@@H](CCCNC(=N)N)C(=O)N4CCC[C@H]4C(=O)N[C@@H](Cc4ccc(O)cc4)C(=O)N[C@H](C(=O)N[C@@H](CC(C)C)C(=O)O)C(C)(C)C)C3=O)C1=O)[C@]1(C)O[C@H]1[C@H](C)[C@@H]1C[C@@](O)(NC(=O)O1)[C@H](OC)/C=C/C=C(\C)C2` (some centres unmarked) [Compound 16], the Ki on human NTSR1 (setting [2]) came to 1.64 nM. For the same compound, in experiment [1] (NTSR1 targeted compound), the IC50 is 15 nM.
The like results for `COc1cc2cc(c1Cl)N(C)C(=O)C[C@H](OC(=O)[C@H](C)N(C)C(=O)CCSC1CC(=O)N(CCCNC(=O)CNC(=O)[C@H](CC(C)C)NC(=O)[C@H](Cc3ccccc3)NC(=O)CNC(=O)CCC(=O)NCCCC[C@H](NC(=O)c3ccc(C(C)=O)cc3)C(=O)N3CCC[C@H]3C(=O)N(C)[C@@H](CCCNC(=N)N)C(=O)N[C@@H](CCCNC(=N)N)C(=O)N3CCC[C@H]3C(=O)N[C@@H](Cc3ccc(O)cc3)C(=O)N[C@H](C(=O)N[C@@H](CC(C)C)C(=O)O)C(C)(C)C)C1=O)[C@]1(C)O[C@H]1[C@H](C)[C@@H]1C[C@@](O)(NC(=O)O1)[C@H](OC)/C=C/C=C(\C)C2` (some centres unmarked) [Compound 28] were, in that order, 0.67 nM and 5.9 nM.
For `CCc1c2c(nc3ccc(O)cc13)-c1cc3c(c(=O)n1C2)COC(=O)[C@@]3(CC)OC(=O)OCc1ccc(NC(=O)[C@H](CCCNC(N)=O)NC(=O)[C@@H](NC(=O)CCCCCN2C(=O)CC(SC(C)(C)[C@H](NC(C)=O)C(=O)N3CCC[C@H]3C(=O)N[C@@H](CCCNC(=N)N)C(=O)N[C@@H](CCCNC(=N)N)C(=O)N3CCC[C@H]3C(=O)N[C@@H](Cc3ccc(O)cc3)C(=O)N[C@H](C(=O)N[C@@H](CC(C)C)C(=O)O)C(C)(C)C)C2=O)C(C)C)cc1` (some centres unmarked) [Compound 64] the same measures were 2.05 nM and 66 nM.
For `COc1cc2cc(c1Cl)N(C)C(=O)C[C@H](OC(=O)[C@H](C)N(C)C(=O)CCSC1CC(=O)N(CCCNC(=O)CNC(=O)[C@H](CC(C)C)NC(=O)[C@H](Cc3ccccc3)NC(=O)CNC(=O)CCCCCN3C(=O)CC(SCCC(=O)NCCCC[C@H](NC(C)=O)C(=O)N4CCC[C@H]4C(=O)N[C@H](CCCN)C(=O)N[C@@H](CCN)C(=O)N4CCC[C@H]4C(=O)N[C@@H](Cc4ccc(O)cc4)C(=O)N[C@H](C(=O)N[C@@H](CC(C)C)C(=O)O)C(C)(C)C)C3=O)C1=O)[C@]1(C)O[C@H]1[C@H](C)[C@@H]1C[C@@](O)(NC(=O)O1)[C@H](OC)/C=C/C=C(\C)C2` (some centres unmarked) [Compound 34] the same measures were 6.07 nM and 70.2 nM.
With `COc1cc2cc(c1Cl)N(C)C(=O)C[C@H](OC(=O)[C@H](C)N(C)C(=O)CCSC1CC(=O)N(CCCNC(=O)CNC(=O)[C@H](CC(C)C)NC(=O)[C@H](Cc3ccccc3)NC(=O)CNC(=O)CCCCCN3C(=O)CC(SCCC(=O)NCCCC[C@H](NC(C)=O)C(=O)N4CCC[C@H]4C(=O)N[C@H](CCCN)C(=O)N[C@@H](CCCNC(=N)N)C(=O)N4CCC[C@H]4C(=O)N[C@@H](Cc4ccc(O)cc4)C(=O)N[C@H](C(=O)N[C@@H](CC(C)C)C(=O)O)C(C)(C)C)C3=O)C1=O)[C@]1(C)O[C@H]1[C@H](C)[C@@H]1C[C@@](O)(NC(=O)O1)[C@H](OC)/C=C/C=C(\C)C2` (some centres unmarked) [Compound 35], the inhibitory constant (Ki) on human NTSR1 (setting [2]) is 3.75 nM. In addition, the IC50 in experiment [1] (NTSR1 targeted compound) was 47.3 nM.
The like results for `COc1cc2cc(c1Cl)N(C)C(=O)C[C@H](OC(=O)[C@H](C)N(C)C(=O)CCSC1CC(=O)N(CCCNC(=O)CNC(=O)[C@H](CC(C)C)NC(=O)[C@H](Cc3ccccc3)NC(=O)CNC(=O)CCCCCN3C(=O)CC(SCCC(=O)NCCCC[C@H](NC(C)=O)C(=O)N4CCC[C@H]4C(=O)N[C@H](CCCNC(=N)N)C(=O)N[C@@H](CCN)C(=O)N4CCC[C@H]4C(=O)N[C@@H](Cc4ccc(O)cc4)C(=O)N[C@H](C(=O)N[C@@H](CC(C)C)C(=O)O)C(C)(C)C)C3=O)C1=O)[C@]1(C)O[C@H]1[C@H](C)[C@@H]1C[C@@](O)(NC(=O)O1)[C@H](OC)/C=C/C=C(\C)C2` (some centres unmarked) [Compound 30] were, in that order, 4.23 nM and 42.7 nM.
With `COc1cc2cc(c1Cl)N(C)C(=O)C[C@H](OC(=O)[C@H](C)N(C)C(=O)CCSC1CC(=O)N(CCCNC(=O)CNC(=O)[C@H](CC(C)C)NC(=O)[C@H](Cc3ccccc3)NC(=O)CNC(=O)CCCCCN3C(=O)CC(SC(C)(C)[C@H](NC(C)=O)C(=O)N4CCC[C@H]4C(=O)N[C@@H](CC(C)C)C(=O)N4CCC[C@H]4C(=O)N[C@@H](CCCNC(=N)N)C(=O)N[C@H](C(=O)N[C@@H](CCCNC(=N)N)C(=O)N[C@@H](Cc4ccc(O)cc4)C(=O)O)C(C)(C)C)C3=O)C1=O)[C@]1(C)O[C@H]1[C@H](C)[C@@H]1C[C@@](O)(NC(=O)O1)[C@H](OC)/C=C/C=C(\C)C2` (some centres unmarked) [Compound 81], the Ki at human NTSR1 was over 100 nM. Further, in experiment [1] (NTSR1 scrambled compound), the IC50 came out at 70 nM.
With `COc1cc2cc(c1Cl)N(C)C(=O)C[C@H](OC(=O)[C@H](C)N(C)C(=O)CCSC1CC(=O)N(CCCNC(=O)CNC(=O)[C@H](CC(C)C)NC(=O)[C@H](Cc3ccccc3)NC(=O)CNC(=O)CCCCCN3C(=O)CC(SC(C)(C)[C@H](NC(C)=O)C(=O)N4CCC[C@H]4C(=O)N(C)[C@@H](CCCNC(=N)N)C(=O)N[C@@H](CCCNC(=N)N)C(=O)N4CCC[C@H]4C(=O)N[C@@H](Cc4ccc(O)cc4)C(=O)N[C@H](C(=O)N[C@@H](CC(C)C)C(=O)O)C(C)(C)C)C3=O)C1=O)[C@]1(C)O[C@H]1[C@H](C)[C@@H]1C[C@@](O)(NC(=O)O1)[C@H](OC)/C=C/C=C(\C)C2` (some centres unmarked) [Compound 20], the Ki on human NTSR1 (setting [2]) was found to be 0.93 nM. Further, in experiment [1] (NTSR1 targeted compound), the IC50 was found to be 6.8 nM.
The like results for `COc1cc2cc(c1Cl)N(C)C(=O)C[C@H](OC(=O)[C@H](C)N(C)C(=O)CCSC1CC(=O)N(CCCNC(=O)CNC(=O)[C@H](CC(C)C)NC(=O)[C@H](Cc3ccccc3)NC(=O)CNC(=O)CCCCCN3C(=O)CC(SC(C)(C)[C@H](NC(C)=O)C(=O)N4CCC[C@H]4C(=O)N[C@@H](CCCNC(=N)N)C(=O)N(C)[C@@H](CCCNC(=N)N)C(=O)N4CCC[C@H]4C(=O)N[C@H](Cc4ccc(O)cc4)C(=O)N[C@H](C(=O)N[C@@H](CC(C)C)C(=O)O)C(C)(C)C)C3=O)C1=O)[C@]1(C)O[C@H]1[C@H](C)[C@@H]1C[C@@](O)(NC(=O)O1)[C@H](OC)/C=C/C=C(\C)C2` (some centres unmarked) [Compound 18] were, in that order, over 100 nM and 36 nM.
For `CCc1c2c(nc3ccc(O)cc13)-c1cc3c(c(=O)n1C2)COC(=O)[C@@]3(CC)OC(=O)OCCSSC(C)(C)[C@H](NC(C)=O)C(=O)N1CCC[C@H]1C(=O)N[C@@H](CCCNC(=N)N)C(=O)N[C@@H](CCCNC(=N)N)C(=O)N1CCC[C@H]1C(=O)N[C@@H](Cc1ccc(O)cc1)C(=O)N[C@H](C(=O)N[C@@H](CC(C)C)C(=O)O)C(C)(C)C` [Compound 63] (Ac-[Pen](X4)PRRPY[Tle]L-OH) the same measures were 1.89 nM and 226 nM.
